Source: patent US7183269B2, “Synergistic compositions for the selective control of tumor tissue” (priority 1997, dated 2007)

Tests used:
RT112 = assay: Cell Death Detection ELISA (apoptosis kit) with RT112 as a function of pH; type: cell-based, human
Experimental: The measurements were carried out using a “Cell Death Detection ELISA” kit, Cat. No. 1774 425 commercially available from Boehringer (Mannheim). The process instructions are additionally supplied by Boehringer.
The OD value corresponds to the cell death.
The results of the experiments are summarized in FIGS. 1 to 3, which correspond to Tables 1 to 3. In the figures, the cell death is recorded in a ELISA (apoptosis kit) with RT112 as a function of the pH. That is to say the data on the Y axis of the figures is a measure of the cell death; the pH of the cells is indicated on the X axis. FIG. 1 and FIG. 2 show experiments in which individual compounds were employed. […] It stands out that at a pH of between 6.5 and 7.0 the compositions according to the invention cause a cell death which is preferably in the vicinity of or above the CAM value, which virtually corresponds to a complete destruction of the tumor tissue.
The apoptosis-inducing substance CAM used in the experiments is camptothecin (CAM value). In the experiments, positive control means that instead of the apoptotic cancer cells induced by the substances a histone-DNA complex with known detection sensitivity is employed for detection, i.e. an artificial apoptosis product is provided. In the experiments, negative control means that the same detection procedure is carried out, but without addition of substances or substance mixtures.
(§1) The human bladder tumor cell line. RT112 or the human chronic myeloid leukemia cell line K562 were purchased from DKFZ Tumorzell—und datenbank (Institut für experimentelle Pathologie, Heidelberg, FRG) or DSM (Deutsche Sammlung von Mikroorganismen und Zellkulturen GmbH, Braunschweig, FRG), respectively. The cells were cultured in HEPES-buffered RPMI 1640 (SIGMA, Deisenhofen, FRG) supplemented with 2 mM L-glutamine (BIOCHROM, Berlin, FRG), 1% NEAE (BIOCHROM), 10% heat-inactivated fetal calf serum (BIOCHROM), 100 U/ml penicillin and 50 μg/ml streptomycin (BIOCHROM) at 37° C. and 5% CO2. Only mycoplasma-free cell cultures were used; this was frequently tested using a specific detection kit (BOEHRINGER MANNHEIM, Mannheim, FRG).

[1] = test system: RT112 tumor cells (bladder carcinoma); assay: [3H]-TdR incorporation assay (proliferation); type: cell-based, human; conditions: in dependence of extracellular pH, FIG. 4
Excerpt: The anticancer activity of salicylate combinations can also be examined by in vitro experiments with tumor cell lines. As a relevant criterion of toxic effects on cancer cells the proliferation rate can be considered. The proliferation rate effected by salicylate combinatioins can be measured in dependence of the extracellular pH-milieu. (Details for cell cultures, see Materials & Methods below.)
The effect of salicylate combinations on the proliferation of RT112 tumor cells is quantitated by the measurement of incorporated tritiated thymidine ([^3H]-TdR) into the cellular DNA of the cancer cells by liquid scintillation counting (LSC). (Method details, see Material & Methods below.)
as §1
The influence of cytotoxic molecules on the proliferation of RT112 tumor cells was quantitated by the measurement of the incorporated tritiated thymidine ([^3H]-TdR) into the cellular DNA of the tumor cells by liquid scintillation counting (LSC). In brief, RT112 cells were harvested, washed twice and resuspended in culture media (2.5×10^5/ml). 100 μl/well of the RT112 cell suspension were seeded into 96 well microtiter plates (BECTON DICKINSON) and incubated over night at 37° C. and 5% CO2. The supernatant was replaced by 90 μl pH-adjusted culture medium (pH 6.0–7.4) and 10 μl of the solution of preferred substances or 100 μl/well pH-adjusted culture medium alone (control). The cells were incubated for various time periods at 37° C. and 5% CO2. Thereafter, cells were washed twice, reincubated in fresh pH-adjusted culture medium and pulsed for 24 h by the addition of 23.125 kBq [^3H]TdR/well (925 kBq/ml; AMERSHAM, Braunschweig, FRG). After freezing and thawing, radioactive DNA of the cultures were transferred to glass fiber filters with an automatic cell harvester (PHARMACIA). The incorporated radioactivity was measured in a liquid scintillation counter (PHARMACIA).

[2] = Table 2, measurement after 35 minutes, 15 mM, initial pH 6.0
[3] = Table 2, measurement after 35 minutes, 15 mM, initial pH 6.5
[4] = Table 2, measurement after 35 minutes, 15 mM, initial pH 7.0
[5] = Table 2, measurement after 35 minutes, 15 mM, initial pH 7.4
[6] = Table 2, measurement after 35 minutes, 10 mM, initial pH 6.0
[7] = Table 2, measurement after 35 minutes, 10 mM, initial pH 6.5
[8] = Table 2, measurement after 35 minutes, 10 mM, initial pH 7.0
[9] = Table 2, measurement after 35 minutes, 10 mM, initial pH 7.4

CC[C@@]1(O)C(=O)OCc2c1cc1n(c2=O)Cc2cc3ccccc3nc2-1 [CAM, camptothecin]
OD (405–490 nm) (RT112; Table 1, measurement after 35 minutes, 800 ng/ml, initial pH 6.0): 0.818 | OD (405–490 nm) (RT112; Table 1, measurement after 35 minutes, 800 ng/ml, initial pH 6.5): 3.037 | OD (405–490 nm) (RT112; Table 1, measurement after 35 minutes, 800 ng/ml, initial pH 7.0): 2.725 | OD (405–490 nm) (RT112; Table 1, measurement after 35 minutes, 800 ng/ml, initial pH 7.4): 2.416 | OD (405–490 nm) (RT112; Table 2, measurement after 35 minutes, 160 ng/ml, initial pH 6.0): 0.344 | OD (405–490 nm) (RT112; Table 2, measurement after 35 minutes, 160 ng/ml, initial pH 6.5): 0.711 | OD (405–490 nm) (RT112; Table 2, measurement after 35 minutes, 160 ng/ml, initial pH 7.0): 1.220 | OD (405–490 nm) (RT112; Table 2, measurement after 35 minutes, 160 ng/ml, initial pH 7.4): 1.923 | OD (405–490 nm) (RT112; Table 3, measurement after 20 minutes, 800 ng/ml, initial pH 6.0): 1.681 | OD (405–490 nm) (RT112; Table 3, measurement after 20 minutes, 800 ng/ml, initial pH 6.5): 1.708 | OD (405–490 nm) (RT112; Table 3, measurement after 20 minutes, 800 ng/ml, initial pH 7.0): 1.791 | OD (405–490 nm) (RT112; Table 3, measurement after 20 minutes, 800 ng/ml, initial pH 7.4): 2.217

O=C(O)c1c(O)cc(O)cc1O [DHSA, 2,4,6-trihydroxybenzoic acid]
effect on the proliferation rate [1]: no effect or minor effect

O=C(O)c1cc(-c2ccc(F)cc2F)ccc1O [Diflu, 5-(2,4-difluoro-phenyl)salicylic acid]
effect on the proliferation rate [1]: no effect or minor effect

Nc1ccc(C(=O)O)c(O)c1 [Substance 58a, 2-hydroxy-4-aminobenzoic acid]
effect on the proliferation rate [1]: no effect or minor effect | OD (405–490 nm) (RT112; [2]): 0.320 | OD (405–490 nm) (RT112; [3]): 0.282 | OD (405–490 nm) (RT112; [4]): 0.574 | OD (405–490 nm) (RT112; [5]): 1.835

CC(=O)Oc1ccccc1C(=O)O [Substance 121, acetylsalicylic acid (2-acetoxybenzoic acid)]
effect on the proliferation rate [1]: no effect or minor effect | OD (405–490 nm) (RT112; [6]): 1.282 | OD (405–490 nm) (RT112; [7]): 0.163 | OD (405–490 nm) (RT112; [8]): 0.413 | OD (405–490 nm) (RT112; [9]): 1.508

CC(=O)Oc1ccc(C(=O)O)c(OC(C)=O)c1 [Substance 132, 2,4-diacetoxybenzoic acid]
OD (405–490 nm) (RT112; [6]): 2.856 | OD (405–490 nm) (RT112; [7]): 0.183 | OD (405–490 nm) (RT112; [8]): 0.088 | OD (405–490 nm) (RT112; [9]): 0.502 | OD (405–490 nm) (RT112; Table 3, measurement after 20 minutes, 5 mM, initial pH 6.0): 0.407 | OD (405–490 nm) (RT112; Table 3, measurement after 20 minutes, 5 mM, initial pH 6.5): 0.371 | OD (405–490 nm) (RT112; Table 3, measurement after 20 minutes, 5 mM, initial pH 7.0): 0.422 | OD (405–490 nm) (RT112; Table 3, measurement after 20 minutes, 5 mM, initial pH 7.4): 0.916

O=C(O)c1c(O)cccc1O [Substance 136, 2,6-dihydroxybenzoic acid]
effect on the proliferation rate [1]: no effect or minor effect | OD (405–490 nm) (RT112; Table 1, measurement after 35 minutes, 5 mM, initial pH 6.0): 0.187 | OD (405–490 nm) (RT112; Table 1, measurement after 35 minutes, 5 mM, initial pH 6.5): 0.918 | OD (405–490 nm) (RT112; Table 1, measurement after 35 minutes, 5 mM, initial pH 7.0): 0.321 | OD (405–490 nm) (RT112; Table 1, measurement after 35 minutes, 5 mM, initial pH 7.4): 0.382 | OD (405–490 nm) (RT112; Table 1, measurement after 35 minutes, 7 mM, initial pH 6.0): 0.221 | OD (405–490 nm) (RT112; Table 1, measurement after 35 minutes, 7 mM, initial pH 6.5): 1.287 | OD (405–490 nm) (RT112; Table 1, measurement after 35 minutes, 7 mM, initial pH 7.0): 0.524 | OD (405–490 nm) (RT112; Table 1, measurement after 35 minutes, 7 mM, initial pH 7.4): 0.816

COc1ccc(C(=O)O)c(OC)c1 [Substance 188, 2,4-dimethoxybenzoic acid]
OD (405–490 nm) (RT112; [2]): 0.256 | OD (405–490 nm) (RT112; [3]): 0.309 | OD (405–490 nm) (RT112; [4]): 0.502 | OD (405–490 nm) (RT112; [5]): 1.854
